{
  "source": "patent US10577334B2",
  "about": "“Crystalline form E of tafamidis meglumine, process for preparation and use thereof” (Crystal Pharmatech Co., Ltd., priority 2016, dated 2020)",
  "key": {"[1]": {"conditions": "converts to liquid crystalline form B spontaneously when stored for some time; cited from earlier work"}, "[2]": {"experiment": "Hygroscopicity by dynamic vapor sorption (DVS)", "assay_type": "physicochemical", "conditions": "for Hygroscopicity class: Chinese Pharmacopoeia 2015 guideline 9103, 25° C.; for Weight gain under 80% Relative Humidity: about 10 mg sample", "protocol": "Dynamic vapor sorption (DVS) was applied to assess hygroscopicity of Form E and Form M in patent CN103781770B with about 10 mg of samples. The DVS plots of Form E and Form M were substantially as depicted in FIG. 8 and FIG. 9, respectively.\nAbout hygroscopicity characterization description and definition of hygroscopicity (Chinese Pharmacopoeia 2015 edition general notices 9103 Drug hygroscopicity test guidelines, test at 25° C.+/−1° C., 80% Relative Humidity). • deliquescent: Sufficient water is absorbed to form a liquid; • very hygroscopic: Increase in mass is equal to or greater than 15 percent; • hygroscopic: Increase in mass is less than 15 percent and equal to or greater than 2 percent; • slightly hygroscopic: Increase in mass is less than 2 percent and equal to or greater than 0.2 percent. • no or almost no hygroscopic: Increase in mass is less than 0.2%."}, "[3]": {"experiment": "Stability of solid form on storage, checked by XRPD", "assay_type": "physicochemical", "conditions": "for Final Solid Form: 11 months, XRPD", "protocol": "Solid samples of Form E were stored under conditions of 25° C./60% relative humidity (RH) and 40° C./75% RH for 11 months and XRPD were tested. The XRPD patterns before and after storage were substantially as depicted in FIG. 7.\nForm E remains stable for at least 11 months under conditions of 25° C./60% RH and 40° C./75% RH. […] The XRPD patterns overlay are substantially as depicted in FIG. 7, in which the top, middle and bottom patterns correspond to the initial sample, sample stored at 25° C./60% RH for 11 months and sample stored at 40° C./75% RH for 11 months, respectively."}, "[4]": {"conditions": "cited from earlier work"}},
  "note": "Counter-ions that a name gives are not always drawn. Like-named read-outs stand apart in the source and are kept apart here.",
  "data": [
    {"smiles": "O=C(O)c1ccc2nc(-c3cc(Cl)cc(Cl)c3)oc2c1", "note": "[amorphous form A, 6-carboxy-2-(3,5-dichlorophenyl)-benzoxazole meglumine salt]", "values": [
      {"measurement": "Stability (in words)", "setting": "[1]", "result": "poor stability"}
    ]},
    {"smiles": "O=C(O)c1ccc2nc(-c3cc(Cl)cc(Cl)c3)oc2c1", "note": "[Form E, 6-carboxy-2-(3,5-dichlorophenyl)-benzoxazole meglumine salt]", "values": [
      {"measurement": "Hygroscopicity class", "setting": "[2]; 80% RH", "result": "slightly hygroscopic (Increase in mass is less than 2 percent and equal to or greater than 0.2 percent)"},
      {"measurement": "Weight gain under 80% Relative Humidity", "setting": "[2]; DVS, 80% RH", "result": 1.82, "unit": "%"},
      {"measurement": "Time the form remains stable", "setting": "[3]; 25° C./60% RH and 40° C./75% RH", "result": "at least 11 months"},
      {"measurement": "Final Solid Form", "setting": "[3]; 25° C./60% RH", "result": "Form E"},
      {"measurement": "Final Solid Form", "setting": "[3]; 40° C./75% RH", "result": "Form E"}
    ]},
    {"smiles": "O=C(O)c1ccc2nc(-c3cc(Cl)cc(Cl)c3)oc2c1", "note": "[Form M, 6-carboxy-2-(3,5-dichlorophenyl)-benzoxazole meglumine salt]", "values": [
      {"measurement": "Hygroscopicity class", "setting": "[2]; 80% RH", "result": "hygroscopic (Increase in mass is less than 15 percent and equal to or greater than 2 percent)"},
      {"measurement": "Weight gain under 75% RH", "setting": "[2]; DVS, 75% RH", "result": 2.98, "unit": "%"},
      {"measurement": "Weight gain under 80% Relative Humidity", "setting": "[2]; DVS, 80% RH", "result": "2.98%-4.65%"},
      {"measurement": "Weight gain under 80% RH, inferred from FIG. 8", "setting": "[2]; DVS, 80% RH, inferred from the 75% RH value", "result": "> 2.98", "unit": "%"},
      {"measurement": "Hygroscopicity (in words)", "setting": "[2]; background statement, \"Studies show\"", "result": "high"}
    ]},
    {"smiles": "O=C(O)c1ccc2nc(-c3cc(Cl)cc(Cl)c3)oc2c1", "note": "[Liquid crystalline form B, 6-carboxy-2-(3,5-dichlorophenyl)-benzoxazole meglumine salt]", "values": [
      {"measurement": "Weight gain when stored at 90% relative humidity", "setting": "[4]; 90% relative humidity", "result": "up to 25%"},
      {"measurement": "Hygroscopicity (in words)", "setting": "[4]; prior-art description", "result": "highly deliquescent"}
    ]}
  ]
}
